Experimental data: US8557796B2, “Substituted 1-oxa-2,8-diaza-spiro [4,5] dec-2-ene derivatives and related treatment methods” (Gruenenthal GmbH, priority 2001, dated 2013)

Target: T1, NA transporter (Rattus norvegicus, UniProt Q9WTR4)
T1 construct: synaptosomes from rat brain regions were freshly isolated; from tissue; host or cells: P2 synaptosome fraction from hypothalamus of male rat brain
Experiment: Noradrenalin uptake inhibition (NA-uptake) in synaptosomes
Format: biochemical
Details: rat hypothalamus synaptosomes
Text: Tests on Noradrenalin Uptake Inhibition (NA-Uptake Inhibition)
In order to be able to carry out these in vitro studies, synaptosomes from rat brain regions were freshly isolated.

T1 sequence (Q9WTR4 1-597): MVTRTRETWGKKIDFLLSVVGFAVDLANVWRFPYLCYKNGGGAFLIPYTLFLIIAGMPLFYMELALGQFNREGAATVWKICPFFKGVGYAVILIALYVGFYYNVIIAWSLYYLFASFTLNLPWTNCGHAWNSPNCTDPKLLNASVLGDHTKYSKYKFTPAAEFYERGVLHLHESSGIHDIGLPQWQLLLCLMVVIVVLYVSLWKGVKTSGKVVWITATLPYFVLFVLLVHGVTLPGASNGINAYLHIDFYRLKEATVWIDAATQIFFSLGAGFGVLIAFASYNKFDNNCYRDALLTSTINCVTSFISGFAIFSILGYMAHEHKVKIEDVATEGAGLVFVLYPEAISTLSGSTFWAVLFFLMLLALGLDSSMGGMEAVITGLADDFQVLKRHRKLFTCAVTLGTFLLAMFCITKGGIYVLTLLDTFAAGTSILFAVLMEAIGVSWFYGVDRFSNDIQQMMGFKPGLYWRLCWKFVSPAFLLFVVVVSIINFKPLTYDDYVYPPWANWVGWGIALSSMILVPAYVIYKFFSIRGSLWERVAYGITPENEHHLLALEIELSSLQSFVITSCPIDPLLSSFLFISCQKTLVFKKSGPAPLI

NA-uptake, 10 μM, % inhibition [%]	Structure (SMILES)	inhibition at 10 µM [%]
	Cc1onc(-c2c(F)cccc2Cl)c1C(=O)N1CCC2(CC1)CC(C(=O)NCc1ccccc1)=NO2 [Example 177, 8-[3-(2-chloro-6-fluorophenyl)-5-methyl-isoxazole-4-carbonyl]-1-oxa-2,8-diaza-spiro [4,5]dec-2-ene-3-carboxylic acid benzylamide]	47
	O=C(NCc1cccs1)C1=NOC2(CCN(S(=O)(=O)c3ccc(Cl)cc3)CC2)C1 [Example 127, 8-(4-chloro-benzenesulphonyl)-1-oxa-2,8-diaza-spiro[4,5]dec-2-ene-3-carboxylic acid (thiophen-2-ylmethyl)-amide]	51
	N#CCCN(CCc1ccccn1)C(=O)C1=NOC2(CCN(S(=O)(=O)c3ccc(F)cc3)CC2)C1 [Example 167, 8-(4-fluoro-benzenesulphonyl)-1-oxa-2,8-diaza-spiro[4,5]dec-2-ene-3-carboxylic acid (2-cyano-ethyl)-(2-pyridin-2-yl-ethyl)-amide]	63
	COc1ccc(Br)cc1S(=O)(=O)N1CCC2(CC1)CC(C(=O)NC1CCCC1)=NO2 [Example 173, 8-(5-bromo-2-methoxy-benzenesulphonyl)-1-oxa-2,8-diaza-spiro[4,5]dec-2-ene-3-carboxylic acid cyclopentylamide]	60
	CCN(CCNC(=O)C1=NOC2(CCN(S(=O)(=O)N(C)C)CC2)C1)c1cccc(C)c1 [Example 216, 8-dimethylsulphamoyl-1-oxa-2,8-diaza-spiro[4,5]dec-2-ene-3-carboxylic acid [2-(ethyl-m-tolyl-amino)-ethyl]amide]	40
	Cc1ccc(S(=O)(=O)N2CCC3(CC2)CC(C(=O)NC2CC2c2ccccc2)=NO3)cc1 (stereo not shown) [Example 75, 8-(toluene-4-sulphonyl)-1-oxa-2,8-diaza-spiro[4,5]dec-2-ene-3-carboxylic acid (2-phenyl-cyclopropyl)-amide]	65
45	O=C(NCC1CCCO1)C1=NOC2(CCN(C(=O)c3ccc(F)cc3F)CC2)C1 (stereo not shown) [Example 112]	
45	O=C(NCc1cccc2ccccc12)C1=NOC2(CCN(S(=O)(=O)c3ccc(Cl)s3)CC2)C1 [Example 128, 8-(5-chloro-thiophene-2-sulphonyl)-1-oxa-2,8-diaza-spiro[4,5]dec-2-ene-3-carboxylic acid naphthalen-l-ylmethyl-amide]	
	Cc1ccc(S(=O)(=O)N2CCC3(CC2)CC(C(=O)N(CCc2ccccc2)Cc2ccccc2)=NO3)cc1 [Example 18, 8-(toluene-4-sulphonyl)-1-oxa-2,8-diaza-spiro[4,5]dec-2-ene-3-carboxylic acid benzyl-phenethyl-amide]	64
	O=C(NC1CCCC1)C1=NOC2(CCN(C(=O)c3cccnc3Oc3ccccc3)CC2)C1 [Example 153, 8-(2-phenoxy-pyridine-3-carbonyl)-1-oxa-2,8-diaza-spiro[4,5]dec-2-ene-3-carboxylic acid cyclopentylamide]	45
	Cc1ccc(C(C)NC(=O)C2=NOC3(CCN(S(=O)(=O)c4ccc(C)cc4)CC3)C2)cc1 (stereo not shown) [Example 45, 8-(toluene-4-sulphonyl)-1-oxa-2,8-diaza-spiro[4,5]dec-2-ene-3-carboxylic acid (1-p-tolyl-ethyl)-amide]	59
	CN(C)CCNC(=O)C1=NOC2(CCN(S(=O)(=O)c3ccccc3)CC2)C1 [Example 13, 8-benzenesulphonyl-1-oxa-2,8-diaza-spiro[4,5]dec-2-ene-3-carboxylic acid (2-dimethylamino-ethyl)-amide]	43
	Cc1cc(C(=O)N2CCC3(CC2)CC(C(=O)NCc2ccccc2)=NO3)c(C)o1 [Example 217, 8-(2,5-dimethyl-furan-3-carbonyl)-1-oxa-2,8-diaza-spiro[4,5]dec-2-ene-3-carboxylic acid benzylamide]	40
	O=C(NCCCn1ccnc1)C1=NOC2(CCN(S(=O)(=O)c3ccc(F)cc3)CC2)C1 [Example 142, 8-(4-fluoro-benzenesulphonyl)-1-oxa-2,8-diaza-spiro[4,5]dec-2-ene-3-carboxylic acid (3-imidazol-1-yl-propyl)-amide]	49
	O=C(NCc1cccs1)C1=NOC2(CCN(S(=O)(=O)c3ccc([N+](=O)[O-])cc3)CC2)C1 [Example 38, 8-(4-nitro-benzenesulphonyl)-1-oxa-2,8-diaza-spiro[4,5]dec-2-ene-3-carboxylic acid (thiophen-2-ylmethyl)-amide]	44
	CC(NC(=O)C1=NOC2(CCN(S(=O)(=O)c3ccc(F)cc3)CC2)C1)c1ccc([N+](=O)[O-])cc1 (stereo not shown) [Example 213, 8-(4-fluoro-benzenesulphonyl)-1-oxa-2,8-diaza-spiro[4,5]dec-2-ene-3-carboxylic acid [1-(4-nitro-phenyl)-ethyl]-amide]	46
	CC(C)CNC(=O)C1=NOC2(CCN(C(=O)c3cccc4ccccc34)CC2)C1 [Example 178, 8-(naphthalene-1-carbonyl)-1-oxa-2,8-diaza-spiro[4,5]dec-2-ene-3-carboxylic acid isobutyl-amide]	51
	O=C(NCCCc1ccccc1)C1=NOC2(CCN(S(=O)(=O)c3ccc(F)cc3)CC2)C1 [Example 193, 8-(4-fluoro-benzenesulphonyl)-1-oxa-2,8-diaza-spiro[4,5]dec-2-ene-3-carboxylic acid (3-phenyl-propyl)-amide]	47
	O=C(NCc1ccccc1)C1=NOC2(CCN(C(=O)COCc3ccccc3)CC2)C1 [Example 171, 8-(2-benzyloxy-acetyl)-1-oxa-2,8-diaza-spiro[4,5]dec-2-ene-3-carboxylic acid benzylamide]	73
	O=C(C1=NOC2(CCN(S(=O)(=O)c3ccc(OC(F)(F)F)cc3)CC2)C1)N(CCc1ccccc1)Cc1ccccc1 [Example 97, 8-(4-trifluoromethoxy-benzenesulphonyl)-1-oxa-2,8-diaza-spiro[4,5]dec-2-ene-3-carboxylic acid benzyl-phenethyl-amide]	83
	O=C(NCC1CC1)C1=NOC2(CCN(C(=O)c3ccc(C(F)(F)F)cc3)CC2)C1 [Example 107, 8-(4-trifluoromethyl-benzoyl)-1-oxa-2,8-diaza-spiro[4,5]dec-2-ene-3-carboxylic acid cyclopropylmethyl-amide]	42
	O=C(C1=NOC2(CCN(S(=O)(=O)Cc3ccccc3)CC2)C1)N1CCN(c2ccccn2)CC1 [Example 134, (8-phenylmethanesulphonyl-1-oxa-2,8-diaza-spiro[4,5]dec-2-en-3-yl)-(4-pyridin-2-yl-piperazin-1-yl)-methanone]	51
	COC(=O)CCC(=O)N1CCC2(CC1)CC(C(=O)NCc1cccs1)=NO2 [Example 114, 4-oxo-4-{3-[(thiophen-2-ylmethyl)-carbamoyl]-1-oxa-2,8-diaza-spiro[4,5]dec-2-ene-8-yl}-butyric acid methyl ester]	42
	O=C(NCC1CC1)C1=NOC2(CCN(C(=O)c3cc(C(F)(F)F)ccc3Cl)CC2)C1 [Example 120, 8-(2-chloro-5-trifluoromethyl-benzoyl)-1-oxa-2,8-diaza-spiro(4,5]dec-2-ene-3-carboxylic acid cyclopropylmethyl-amide]	40

Structure (SMILES)	NA-uptake, 10 μM, % inhibition [%]	inhibition at 10 µM [%]
O=C(NC1CCCC1OCc1ccccc1)C1=NOC2(CCN(S(=O)(=O)c3ccc(Cl)s3)CC2)C1 (stereo not shown) [Example 191]	74	
